From patent US7700644B2, “Isoflavonoid dimers” (Novogen Research Pty Ltd, priority 2005, dated 2010)

Columns and labels:
PGE2 = PGE2 in murine macrophages (RAW 264.7) stimulated with LPS; format: cell-based, mouse; conditions: RAW 264.7, LPS 50 ng/ml, 16 hrs, dose responsive
Experimental: The mouse macrophage cell line RAW 264.7 was cultured in DMEM supplemented with FCS, 2 mM glutamine and 50 U/ml penicillin/streptomycin. Subconfluent cells were detached from the flask by gentle scraping and 24-well plates seeded at 5×10^5 cells per well and allowed to adhere for 1 hr. Cells were then treated either test compounds (in 0.025% DMSO) or vehicle alone, and incubated for 1 hr. LPS 50 ng/ml (LPS —Sigma-Aldrich) was then added. After incubation for 16 hrs, culture media was collected and stored at −80° C. for ecosanoid and cytokine measurements using enzyme immunometric assays (PGE2 and TXB2—Cayman Chemical and TNFα—Becton Dickinson).

unstimulated splenocytes = experiment: Murine splenocytes, 24 hour pre-incubation with compound then mitogenic stimulation; format: cell-based, Male Skh-1 (hairless) mice; conditions: 10 μM
Experimental: (§1) Male Skh-1 (hairless) mice, six weeks old were killed by cervical dislocation. Single cell suspensions were made from their spleens and erythrocytes were lysed in buffer (0.14M NH4Cl, 17 mM Tris, pH 7.2). The remaining splenocytes were cultured in RPMI-1640 (Gibco) supplemented with 10% (v:v) FBS, 200 mM L-glutamine, penicillin/streptomycin and […] 2-mercaptoethanol. Splenocytes were added to triplicate wells containing either concanavalin A (ConA, Sigma-Aldrich—0.4 μg/well), lipopolysaccharide (LPS, Sigma-Aldrich—1 μg/well) or no mitogen, as well as 10 μM of either Compound 1 or Compound 2 in DMSO, or DMSO alone. Samples were analysed after a 3 day incubation at 37° C. in 5% CO2 in air. To assess cell numbers, methylthiazoletetrazolium (MTT) was added to each well, incubated for a further 4 hrs and then colour developed with 0.04N HCl in isopropanol (Mosmann 1983). Plates were read at 570 nm and 630 nm. The compounds were examined several times using different mice. For each assay, the effect of test compound was compared with that of vehicle control, and the results compared using a student's t test (Prism). Statistically significant difference was determined to have occurred when p<0.05.
Another assay examined the effect pre-incubating unstimulated splenocytes with test compounds at 10 μM for 24 hours, removing the compounds and then assessing their ability to respond to mitogenic stimulation as described for the previous assay. Cell numbers were assessed after the 24 hr pre-incubation using MTT, and equal numbers of cells/well plated into 96 well plates as usual.

MM96L (Melanoma) = experiment: In vitro cytotoxicity, MTT proliferation assay, MM96L; format: cell-based, human; conditions: Homo sapiens
Experimental: The human pancreatic cancer cell line, HPAC (CRL-2119) was routinely cultured in 1:1 mixture DMEM (Sigma) plus Ham's F12 (Sigma) medium containing HEPES (15 mM), insulin (0.002 mg/ml), transferrin (0.005 mg/ml), hydrocortisone, (40 ng/ml), epidermal growth factor (10 ng/ml). The ovarian cancer cell line CP70 was obtained as a gift from Dr. Gil Mor (Yale University) and cultured in a 1:1 mixture DMEM plus Ham's F12 medium, and SKOV-3 was purchased from ATCC and cultured in McCoy's 5a medium. The breast cancer cell line MDA-MB-468 cultured in Leibovitz's L-15 medium.
All cultures were supplemented with 10% FCS(CSL, Australia), penicillin (100 U/ml), streptomycin ([…]), L-glutamine (2 mM) and sodium bicarbonate (1.2 g/L), and cultured at 37° C. in a humidified atmosphere of 5% CO2. All remaining cell lines were purchased from ATCC (Maryland, USA) except where noted.
IC50 values were determined for each cell line. Cells were seeded in 96-well plates at an appropriate cell density as determined from growth kinetics analysis. NFFs were cultured for 5 days and RK-13s for 24 hrs in the absence and presence of the test compounds. Cell proliferation was assessed after the addition of 20 μl of 3-4,5 dimethylthiazol-2,5-diphenyl tetrazolium bromide (MTT, 2.5 mg/ml in PBS, Sigma) for 3-4 hrs at 37° C. according to manufacturer's instructions. IC50 values were calculated from semi-log plots of % of control proliferation on the y-axis against log dose on the x-axis.

[1] = test system: HCT-15 (Colorectal) cells; experiment: Chemosensitisation, combination with antineoplastic agent, HCT-15; format: cell-based, human
Experimental: The utility of the dimeric compounds of the invention to act as a chemosensitiser when used in combination with an array of standard chemotherapeutic agents was assessed. Dimeric Cpd. 2 was applied to various colorectal and pancreatic cancer cell lines to investigate its synergy with standard chemotherapeutic agents including cisplatin, gemcitabine, paclitaxel, doxorubicin, camptothecin and topotecan.
The experiment as outlined in SOP-BD011 (Versions A and B) was used to screen three antineoplastic agents against a given cell line in any ‘one’ experiment (see for example Kanzawa et al., (1997)). The inherent design of the experiment allowed for three sequences of Cpd. 2 and an antineoplastic agent. • 1) Direct Sequence—Cells are treated with both Cpd. 2 and a single antineoplastic agent (combined) for 5 days. • 2) Cpd. 2 First (Forward) Sequence—Cells are treated for 24 hours with Cpd. 2 before replacing with a 24 hour antineoplastic agent treatment; drugs are then washed out and processed on Day 5. • 3) Reverse Sequence—The reverse order to experiment No. 2 above. i.e. a cytotoxin first sequence Results and Conclusions
All data was evaluated using the formulae of theoretic additivity incorporated into a three dimensional model, as described by Kanzawa et al. (1997). This allows for simple data interpretation as values in excess of 10% are defined as ‘synergistic’ (depicted in grey) whilst those below −10% are defined as ‘antagonistic’ (depicted in black).

splenocytes = experiment: Murine splenocyte proliferation with mitogens (MTT), 3 day incubation with compound; format: cell-based, Male Skh-1 (hairless) mice
Experimental: as §1, with “Splenocytes were added to triplicate wells containing either concanavalin A (ConA, Sigma-Aldrich—0.4 μg/well), lipopolysaccharide (LPS, Sigma-Aldrich—1 μg/well) or no mitogen, as well as 10 μM of either Compound 1 or Compound 2 in DMSO, or DMSO alone.” left out

COc1ccc(C23COc4c(ccc(O)c4C)C2C2c4ccc(O)c(C)c4OCC2c2cc(OC)c(OC)cc23)cc1OC (centres unmarked) [Cpd. 2, 4,9-Dihydroxy-14,15-dimethoxy-12a-(3′,4′-dimethoxyphenyl)-3,10-dimethyl-2,11-dioxa-(1H,12H)-6b,6c,12a,16b-tetrahydronaphtho[1,2-g]chrysene]
effect on PGE2 (PGE2): induced | Splenocyte viability following three days' culture in the absence of mitogen (unstimulated splenocytes): significantly reduced | reduction in cell numbers compared with vehicle alone (unstimulated splenocytes): 55% | proliferative response to ConA after pre-incubation (unstimulated splenocytes; compound removed): significantly less | IC50 (MM96L (Melanoma)): 6.8 µM | synergy with Doxorubicin ([1]; combination (A)): strong synergistic cytotoxicity | synergy with Paclitaxel ([1]; combination treated group (A)): no synergy | synergy with Paclitaxel ([1]; forward (B) and reverse (C) 24 hour sequences, Cpd. 2 1 μM and 2 μM): strong synergy | synergy with Doxorubicin ([1]; forward (B) or reverse (C) sequences): No synergy | effect on splenocyte proliferation (splenocytes; 10 μM, four different assays): no consistent trend | proliferation compared with vehicle control (splenocytes; higher concentrations (than 10 μM), regardless of mitogenic stimulation): reduced proliferation
